{
  "source": "ChEMBL document CHEMBL5634130",
  "about": "“Exploring the structural-activity relationship of hexahydropyrazino[1,2-d]pyrido[3,2-b][1,4]oxazine derivatives as potent and orally-bioavailable PARP7 inhibitors” (Eur J Med Chem, 2023)",
  "key": {"NCI-H1373 [1]": {"system": "NCI-H1373", "test": "Antiproliferative activity against human NCI-H1373 cells assessed as inhibition of cell viability incubated for 4 days by luminescence based assay", "details": "NCI-H1373, 96 h"}, "MDA-MB-436 [2]": {"system": "MDA-MB-436", "test": "Antiproliferative activity against human MDA-MB-436 cells assessed as inhibition of cell viability at 0.1 uM incubated for 7 days by luminescence based assay", "format": "functional", "details": "time 7.0 day"}, "MDA-MB-436 [3]": {"system": "MDA-MB-436", "test": "Antiproliferative activity against human MDA-MB-436 cells assessed as inhibition of cell viability incubated for 7 days by luminescence based assay", "format": "functional", "details": "MDA-MB-436, 168 h"}, "[4]": {"biological_target": "Poly [ADP-ribose] polymerase 1 (Homo sapiens, UniProt P09874)", "sequence (P09874 whole entry)": "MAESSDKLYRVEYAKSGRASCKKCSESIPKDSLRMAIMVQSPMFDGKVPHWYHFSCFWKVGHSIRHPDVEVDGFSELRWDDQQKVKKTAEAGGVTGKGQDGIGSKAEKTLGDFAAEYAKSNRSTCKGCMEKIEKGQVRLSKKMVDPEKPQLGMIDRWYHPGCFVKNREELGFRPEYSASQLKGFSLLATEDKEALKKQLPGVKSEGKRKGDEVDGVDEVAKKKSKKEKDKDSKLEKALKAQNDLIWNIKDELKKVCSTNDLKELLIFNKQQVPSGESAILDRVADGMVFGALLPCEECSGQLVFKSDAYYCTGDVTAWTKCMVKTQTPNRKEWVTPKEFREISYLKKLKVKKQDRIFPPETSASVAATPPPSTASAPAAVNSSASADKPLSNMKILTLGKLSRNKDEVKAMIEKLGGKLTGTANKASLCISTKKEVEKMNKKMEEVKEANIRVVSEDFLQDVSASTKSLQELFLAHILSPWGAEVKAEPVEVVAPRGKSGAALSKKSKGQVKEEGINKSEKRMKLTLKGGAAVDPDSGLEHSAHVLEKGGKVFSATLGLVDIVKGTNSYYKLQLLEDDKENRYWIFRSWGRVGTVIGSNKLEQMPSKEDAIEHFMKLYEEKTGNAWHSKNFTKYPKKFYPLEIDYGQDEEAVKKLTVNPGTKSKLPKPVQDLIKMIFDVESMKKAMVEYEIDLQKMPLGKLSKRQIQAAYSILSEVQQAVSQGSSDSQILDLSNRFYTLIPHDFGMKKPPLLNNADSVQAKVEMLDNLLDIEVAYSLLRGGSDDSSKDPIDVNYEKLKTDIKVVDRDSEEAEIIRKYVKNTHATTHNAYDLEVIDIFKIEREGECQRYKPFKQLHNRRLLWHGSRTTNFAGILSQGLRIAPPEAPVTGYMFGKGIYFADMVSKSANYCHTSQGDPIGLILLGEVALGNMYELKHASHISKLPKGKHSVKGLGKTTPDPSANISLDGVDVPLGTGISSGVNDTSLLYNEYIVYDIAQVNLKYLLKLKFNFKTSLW", "test": "Inhibition of PARP1 (unknown origin)"}, "[5]": {"biological_target": "Protein mono-ADP-ribosyltransferase PARP14 (Homo sapiens, UniProt Q460N5)", "sequence (Q460N5 whole entry)": "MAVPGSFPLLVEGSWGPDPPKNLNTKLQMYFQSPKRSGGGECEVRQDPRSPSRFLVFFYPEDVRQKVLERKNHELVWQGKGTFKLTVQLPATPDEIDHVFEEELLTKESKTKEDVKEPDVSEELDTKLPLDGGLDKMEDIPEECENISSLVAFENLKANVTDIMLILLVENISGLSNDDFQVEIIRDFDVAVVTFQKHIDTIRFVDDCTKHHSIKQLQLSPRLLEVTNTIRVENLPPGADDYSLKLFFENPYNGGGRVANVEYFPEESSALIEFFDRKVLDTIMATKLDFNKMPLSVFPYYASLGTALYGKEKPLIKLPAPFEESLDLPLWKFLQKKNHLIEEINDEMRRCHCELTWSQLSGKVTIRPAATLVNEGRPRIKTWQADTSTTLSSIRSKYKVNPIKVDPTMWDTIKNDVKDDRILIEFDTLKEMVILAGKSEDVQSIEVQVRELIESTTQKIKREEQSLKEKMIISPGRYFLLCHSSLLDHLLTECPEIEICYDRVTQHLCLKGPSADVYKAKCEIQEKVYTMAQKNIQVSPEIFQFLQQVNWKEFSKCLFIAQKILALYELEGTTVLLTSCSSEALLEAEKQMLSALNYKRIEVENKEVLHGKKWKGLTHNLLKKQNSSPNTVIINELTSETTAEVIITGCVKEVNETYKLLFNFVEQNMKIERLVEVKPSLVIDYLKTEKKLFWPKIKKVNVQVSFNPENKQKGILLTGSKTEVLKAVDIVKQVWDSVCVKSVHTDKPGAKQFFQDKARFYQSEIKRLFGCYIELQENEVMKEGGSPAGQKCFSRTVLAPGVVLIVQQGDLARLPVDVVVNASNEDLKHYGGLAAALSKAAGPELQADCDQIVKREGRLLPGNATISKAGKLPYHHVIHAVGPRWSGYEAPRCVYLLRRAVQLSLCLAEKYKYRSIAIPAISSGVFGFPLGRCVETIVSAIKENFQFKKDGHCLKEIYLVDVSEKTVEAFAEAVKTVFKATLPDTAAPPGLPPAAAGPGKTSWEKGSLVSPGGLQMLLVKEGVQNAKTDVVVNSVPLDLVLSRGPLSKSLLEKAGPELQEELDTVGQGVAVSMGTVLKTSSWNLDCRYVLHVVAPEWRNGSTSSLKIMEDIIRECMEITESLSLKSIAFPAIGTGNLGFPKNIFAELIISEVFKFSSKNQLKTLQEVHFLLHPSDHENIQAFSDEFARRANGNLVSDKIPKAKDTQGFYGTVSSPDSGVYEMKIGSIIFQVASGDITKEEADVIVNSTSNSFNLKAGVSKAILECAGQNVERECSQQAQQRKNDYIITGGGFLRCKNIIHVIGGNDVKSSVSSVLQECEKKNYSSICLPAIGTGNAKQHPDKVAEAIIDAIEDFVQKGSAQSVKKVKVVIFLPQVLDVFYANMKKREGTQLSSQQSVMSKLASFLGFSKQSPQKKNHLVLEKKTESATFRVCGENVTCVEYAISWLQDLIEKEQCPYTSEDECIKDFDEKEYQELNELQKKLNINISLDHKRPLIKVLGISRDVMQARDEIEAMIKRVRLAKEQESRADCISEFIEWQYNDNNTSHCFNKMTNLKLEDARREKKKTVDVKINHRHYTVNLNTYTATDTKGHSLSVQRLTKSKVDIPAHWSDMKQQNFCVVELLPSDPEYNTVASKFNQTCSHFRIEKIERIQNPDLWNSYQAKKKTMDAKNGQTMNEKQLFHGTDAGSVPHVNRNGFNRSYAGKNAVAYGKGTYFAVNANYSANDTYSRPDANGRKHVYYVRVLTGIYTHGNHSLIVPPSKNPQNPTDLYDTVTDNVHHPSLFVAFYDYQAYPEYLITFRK", "test": "Inhibition of PARP14 (unknown origin)"}, "[6]": {"test": "Clearance in fasted ICR mouse at 2 mg/kg, iv measured for 24 hrs by LC-MS analysis", "format": "ADME, organism-based", "details": "in vivo"}, "[7]": {"test": "AUC in fasted ICR mouse at 2 mg/kg, iv measured for 24 hrs by LC-MS analysis", "format": "ADME, organism-based", "details": "in vivo"}, "[8]": {"test": "Tmax in fasted ICR mouse at 10 mg/kg, po measured for 24 hrs by LC-MS analysis", "format": "ADME, organism-based", "details": "in vivo"}, "[9]": {"test": "AUC in fasted ICR mouse at 10 mg/kg, po measured for 24 hrs by LC-MS analysis", "format": "ADME, organism-based", "details": "in vivo"}, "NCI-H1373 [10]": {"system": "NCI-H1373", "test": "Antitumor activity against human NCI-H1373 cells xenografted in […] SCID mouse model assessed as tumor growth inhibition at 30 mg/kg, po administered everyday measured after 21 days relative to control", "format": "functional", "details": "NCI-H1373, 504 h, time 21 day, read-out: TGI"}, "[11]": {"test": "Toxicity in […] SCID mouse model xenografted with human NCI-H1373 cells assessed as body weight loss at 30 mg/kg, po measured for 21 days", "format": "organism-based", "details": "in vivo, 504 h, time 21 day"}, "[12]": {"test": "Half life in fasted Beagle dog at 2 mg/kg, iv measured for 24 hrs by LC-MS analysis", "format": "ADME, organism-based, Canis lupus familiaris", "details": "in vivo"}, "[13]": {"test": "Volume of distribution at steady state in fasted Beagle dog at 2 mg/kg, iv measured for 24 hrs by LC-MS analysis", "format": "ADME, organism-based, Canis lupus familiaris", "details": "in vivo, read-out: Vdss"}, "[14]": {"test": "Tmax in fasted Beagle dog at 10 mg/kg, po measured for 24 hrs by LC-MS analysis", "format": "ADME, organism-based, Canis lupus familiaris", "details": "in vivo"}, "[15]": {"test": "Cmax in fasted Beagle dog at 10 mg/kg, po measured for 24 hrs by LC-MS analysis", "format": "ADME, organism-based, Canis lupus familiaris", "details": "in vivo"}, "[16]": {"test": "AUC in fasted Beagle dog at 10 mg/kg, po measured for 24 hrs by LC-MS analysis", "format": "ADME, organism-based, Canis lupus familiaris", "details": "in vivo"}, "[17]": {"test": "Kinetic solubility of compound at pH 2", "format": "physicochemical", "details": "buffer, read-out: Kinetic_solubility"}, "[18]": {"test": "Kinetic solubility of compound at pH 6.5", "format": "physicochemical", "details": "buffer, read-out: Kinetic_solubility"}, "[19]": {"test": "Thermodynamic solubility of compound at pH 2", "format": "physicochemical", "details": "buffer, read-out: Therm_solubility"}, "[20]": {"test": "Apparent permeability across apical to basolateral side in MDCKII-MDR1 cells incubated for 2 hrs by LC-MS analysis", "format": "ADME, cell-based, Canis lupus familiaris", "details": "dog, MDCK-MDR1"}, "[21]": {"test": "Apparent permeability across basolateral to apical side in MDCKII-MDR1 cells incubated for 2 hrs by LC-MS analysis", "format": "ADME, cell-based, Canis lupus familiaris", "details": "dog, MDCK-MDR1"}, "[22]": {"test": "Efflux ratio of apparent permeability across basolateral to apical side over apical to basolateral side in MDCKII-MDR1 cells incubated for 2 hrs by LC-MS analysis", "format": "ADME, cell-based, Canis lupus familiaris", "details": "dog, MDCK-MDR1"}, "[23]": {"test": "Plasma protein binding in human at 2 uM incubated for 1 hr by LC/MS analysis", "format": "ADME, cell-free", "details": "read-out: PPB (converted)"}, "[24]": {"test": "Plasma protein binding in dog at 2 uM incubated for 1 hr by LC/MS analysis", "format": "ADME, cell-free, Canis lupus familiaris", "details": "read-out: PPB (converted)"}, "[25]": {"test": "Plasma protein binding in rat at 2 uM incubated for 1 hr by LC/MS analysis", "format": "ADME, cell-free", "details": "read-out: PPB (converted)"}, "[26]": {"test": "Metabolic stability in human liver microsomes assessed as intrinsic clearance preincubated for 5 mins followed by NADPH addition measured for 1 hr by LC-MS analysis", "format": "ADME, Microsome", "details": "time 65 min, read-out: CLH"}, "[27]": {"test": "Metabolic stability in monkey liver microsomes assessed as intrinsic clearance preincubated for 5 mins followed by NADPH addition measured for 1 hr by LC-MS analysis", "format": "ADME, Macaca mulatta, Microsome", "details": "rhesus monkey, time 65 min, read-out: CLH"}, "[28]": {"test": "Metabolic stability in dog liver microsomes assessed as intrinsic clearance preincubated for 5 mins followed by NADPH addition measured for 1 hr by LC-MS analysis", "format": "ADME, Canis lupus familiaris, Microsome", "details": "time 65 min, read-out: CLH"}, "[29]": {"test": "Metabolic stability in mouse liver microsomes assessed as intrinsic clearance preincubated for 5 mins followed by NADPH addition measured for 1 hr by LC-MS analysis", "format": "ADME, Microsome", "details": "time 65 min, read-out: CLH"}, "Cytochrome P450 1A2": {"biological_target": "T1, Cytochrome P450 1A2 (Homo sapiens, UniProt P05177)", "T1 sequence (P05177 whole entry)": "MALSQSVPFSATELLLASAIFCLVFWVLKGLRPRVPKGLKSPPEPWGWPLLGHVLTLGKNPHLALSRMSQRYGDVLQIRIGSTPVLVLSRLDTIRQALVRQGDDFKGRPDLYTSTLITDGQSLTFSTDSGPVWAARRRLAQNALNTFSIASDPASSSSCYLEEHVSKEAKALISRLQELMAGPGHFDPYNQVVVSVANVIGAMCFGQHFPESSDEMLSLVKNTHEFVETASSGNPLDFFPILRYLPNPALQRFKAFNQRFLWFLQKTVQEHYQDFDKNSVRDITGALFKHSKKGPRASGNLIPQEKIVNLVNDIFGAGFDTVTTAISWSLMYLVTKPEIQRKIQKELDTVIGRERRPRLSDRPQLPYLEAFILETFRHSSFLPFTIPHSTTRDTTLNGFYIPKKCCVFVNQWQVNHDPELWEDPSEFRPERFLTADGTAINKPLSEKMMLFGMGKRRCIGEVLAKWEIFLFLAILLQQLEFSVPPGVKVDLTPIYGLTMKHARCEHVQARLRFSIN", "test": "Inhibition of CYP1A2 in human liver microsomes using phenacetin as substrate preincubated for 10 mins followed by substrate addition measured for 30 mins by LC-MS analysis", "format": "ADME, Microsome"}, "Cytochrome P450 2C9": {"biological_target": "Cytochrome P450 2C9 (Homo sapiens, UniProt P11712)", "sequence (P11712 whole entry)": "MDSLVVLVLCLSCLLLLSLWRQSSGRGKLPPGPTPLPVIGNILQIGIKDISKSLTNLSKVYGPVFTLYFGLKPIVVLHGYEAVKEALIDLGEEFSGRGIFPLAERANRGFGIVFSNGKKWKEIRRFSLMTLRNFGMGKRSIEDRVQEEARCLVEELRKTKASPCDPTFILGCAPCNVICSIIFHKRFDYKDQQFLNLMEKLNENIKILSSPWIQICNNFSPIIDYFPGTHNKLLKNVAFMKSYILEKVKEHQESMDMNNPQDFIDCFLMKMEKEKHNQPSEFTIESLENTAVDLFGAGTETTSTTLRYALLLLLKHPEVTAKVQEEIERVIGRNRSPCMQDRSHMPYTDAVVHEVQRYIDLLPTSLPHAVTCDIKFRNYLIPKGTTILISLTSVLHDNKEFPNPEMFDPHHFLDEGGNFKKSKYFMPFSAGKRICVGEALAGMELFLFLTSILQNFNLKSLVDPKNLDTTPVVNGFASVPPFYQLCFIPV", "test": "Inhibition of CYP2C9 in human liver microsomes using diclofenac as substrate preincubated for 10 mins followed by substrate addition measured for 30 mins by LC-MS analysis", "format": "ADME, Microsome"}, "Cytochrome P450 2D6": {"biological_target": "Cytochrome P450 2D6 (Homo sapiens, UniProt P10635)", "sequence (P10635 whole entry)": "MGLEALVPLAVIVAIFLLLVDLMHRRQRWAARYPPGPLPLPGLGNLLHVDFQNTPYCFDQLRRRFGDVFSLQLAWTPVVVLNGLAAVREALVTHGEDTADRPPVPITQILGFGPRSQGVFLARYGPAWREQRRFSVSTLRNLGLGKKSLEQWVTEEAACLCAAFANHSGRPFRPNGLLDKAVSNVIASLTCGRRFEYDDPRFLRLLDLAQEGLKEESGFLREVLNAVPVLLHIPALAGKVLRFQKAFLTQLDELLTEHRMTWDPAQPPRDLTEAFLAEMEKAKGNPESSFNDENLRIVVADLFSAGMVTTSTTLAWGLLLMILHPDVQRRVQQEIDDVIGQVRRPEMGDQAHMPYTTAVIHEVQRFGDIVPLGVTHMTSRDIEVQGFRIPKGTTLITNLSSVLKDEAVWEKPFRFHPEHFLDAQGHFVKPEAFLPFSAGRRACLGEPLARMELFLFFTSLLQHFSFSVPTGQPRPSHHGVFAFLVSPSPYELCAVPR", "test": "Inhibition of CYP2D6 in human liver microsomes using dextromethorphan as substrate preincubated for 10 mins followed by substrate addition measured for 30 mins by LC-MS analysis", "format": "ADME, Microsome"}},
  "note": "Activity calls are given as the source filed them. The calls are words filed in the database; no cut-off is given here.",
  "data": [
    {"compound": "O=C(CCOC[C@@H]1CCN1c1cn[nH]c(=O)c1C(F)(F)F)N1CCN2c3ncc(C(F)(F)F)cc3OC[C@@H]2C1", "values": [
      {"measurement": "IC50", "setting": "NCI-H1373 [1]", "result": 0.0041, "unit": "µM"},
      {"measurement": "Activity", "setting": "MDA-MB-436 [2]", "result": "inactive"},
      {"measurement": "IC50", "setting": "MDA-MB-436 [3]", "result": "> 10", "unit": "µM"},
      {"measurement": "IC50", "setting": "[4]", "result": 0.492, "unit": "µM"},
      {"measurement": "IC50", "setting": "[5]", "result": "> 1", "unit": "µM"},
      {"measurement": "clearance", "setting": "[6]", "result": 2.95, "unit": "L/h/kg"},
      {"measurement": "AUC at 24 h", "setting": "[7]", "result": 0.68, "unit": "µg·h/mL"},
      {"measurement": "Tmax", "setting": "[8]", "result": 24, "unit": "min"},
      {"measurement": "AUC", "setting": "[9]", "result": 1.146, "unit": "µg·h/mL"},
      {"measurement": "inhibition in vivo at 30 mg/kg", "setting": "NCI-H1373 [10]", "result": 75.2, "unit": "%"},
      {"measurement": "Activity", "setting": "[11]", "result": "Non-Toxic"},
      {"measurement": "half-life", "setting": "[12]", "result": 78, "unit": "min"},
      {"measurement": "Vd", "setting": "[13]", "result": 0.948, "unit": "L/kg"},
      {"measurement": "Tmax", "setting": "[14]", "result": 24.6, "unit": "min"},
      {"measurement": "Cmax", "setting": "[15]", "result": 2.3, "unit": "µg/mL"},
      {"measurement": "AUC", "setting": "[16]", "result": 7.86, "unit": "µg·h/mL"},
      {"measurement": "solubility kinetic", "setting": "[17]", "result": 166, "unit": "µM"},
      {"measurement": "solubility kinetic", "setting": "[18]", "result": 154, "unit": "µM"},
      {"measurement": "solubility thermodynamic", "setting": "[19]", "result": 0.601, "unit": "mg/mL"},
      {"measurement": "Papp A→B at 2 h", "setting": "[20]", "result": 2.02, "unit": "nm/s"},
      {"measurement": "Papp B→A at 2 h", "setting": "[21]", "result": 33, "unit": "nm/s"},
      {"measurement": "efflux ratio at 2 h", "setting": "[22]", "result": 16.3},
      {"measurement": "fraction unbound at 1 h, 2 µM", "setting": "[23]", "result": 0.002},
      {"measurement": "fraction unbound at 1 h, 2 µM", "setting": "[24]", "result": 0.006},
      {"measurement": "fraction unbound at 1 h, 2 µM", "setting": "[25]", "result": 0.044},
      {"measurement": "CLint scaled", "setting": "[26]", "result": 1.19, "unit": "L/h/kg"},
      {"measurement": "CLint scaled", "setting": "[27]", "result": 4.75, "unit": "L/h/kg"},
      {"measurement": "CLint scaled", "setting": "[28]", "result": 0.546, "unit": "L/h/kg"},
      {"measurement": "CLint scaled", "setting": "[29]", "result": 8.46, "unit": "L/h/kg"},
      {"measurement": "IC50", "setting": "Cytochrome P450 1A2", "result": "> 30", "unit": "µM"},
      {"measurement": "IC50", "setting": "Cytochrome P450 2C9", "result": 2.01, "unit": "µM"},
      {"measurement": "IC50", "setting": "Cytochrome P450 2D6", "result": "> 30", "unit": "µM"}
    ]}
  ]
}
